According to the supplement of paper PMC10307832:

Experiments:
Test in all cases: relative viability (nuclei count vs DMSO), 5 days (fraction); higher = more cells survive
[1] = compound: O=c1[nH]cc(F)c(=O)[nH]1 [5-Fluorouracil] + Cc1cc(Nc2cc(N3CCN(C)CC3)nc(Sc3ccc(NC(=O)C4CC4)cc3)n2)n[nH]1 [Tozasertib] (partner 0.1 µM)
How it was run: (§1)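 Relative viability was taken as the ratio of nuclei in treated wells to nuclei in vehicle wells. Lung cancer cell lines in 1536-well plates received compounds by pin tool one day after seeding, either one drug alone or a fixed anchor-drug dose plus five library-drug doses (not always all listed) in √10 steps. Nuclei were counted on 4× images after 5 days of treatment, and values are medians of duplicate plates.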

Sulindac + Linsitinib = compound: CC1=C(CC(=O)O)c2cc(F)ccc2/C1=C\c1ccc([S+](C)[O-])cc1 [Sulindac] + C[C@]1(O)C[C@@H](c2nc(-c3ccc4ccc(-c5ccccc5)nc4c3)c3c(N)nccn32)C1 [Linsitinib] (partner 1 µM)
How it was run: as §1

[2] = compound: O=c1[nH]cc(F)c(=O)[nH]1 [5-Fluorouracil] + C[C@]1(O)C[C@@H](c2nc(-c3ccc4ccc(-c5ccccc5)nc4c3)c3c(N)nccn32)C1 [Linsitinib] (partner 1 µM)
How it was run: as §1

Sulindac + Foretinib = compound: CC1=C(CC(=O)O)c2cc(F)ccc2/C1=C\c1ccc([S+](C)[O-])cc1 [Sulindac] + COc1cc2c(Oc3ccc(NC(=O)C4(C(=O)Nc5ccc(F)cc5)CC4)cc3F)ccnc2cc1OCCCN1CCOCC1 [Foretinib] (partner 0.25 µM)
How it was run: as §1

| Cell Line | relative viability ([1]; first compound 0.02 µM) | relative viability ([1]; first compound 0.2 µM) | relative viability ([1]; first compound 0.6325 µM) | relative viability ([1]; first compound 2 µM) | relative viability (Sulindac + Linsitinib; first compound 0.08 µM) | relative viability (Sulindac + Linsitinib; first compound 0.253 µM) | relative viability (Sulindac + Linsitinib; first compound 0.8 µM) | relative viability (Sulindac + Linsitinib; first compound 2.53 µM) | relative viability (Sulindac + Linsitinib; first compound 8 µM) | relative viability ([2]; first compound 0.02 µM) | relative viability ([2]; first compound 0.2 µM) | relative viability ([2]; first compound 0.6325 µM) | relative viability ([2]; first compound 2 µM) | relative viability (Sulindac + Foretinib; first compound 0.08 µM) | relative viability (Sulindac + Foretinib; first compound 0.253 µM) | relative viability (Sulindac + Foretinib; first compound 0.8 µM) | relative viability (Sulindac + Foretinib; first compound 2.53 µM) | relative viability (Sulindac + Foretinib; first compound 8 µM) |
| --- | --- | --- | --- | --- | --- | --- | --- | --- | --- | --- | --- | --- | --- | --- | --- | --- | --- | --- |
| NCI-H2347 | 0.606 | 0.425 | 0.303 | 0.292 | 1.07 | 1.09 | 0.982 | 1.06 | 1.16 | 0.997 | 0.748 | 0.467 | 0.411 | 1.08 | 0.562 | 0.645 | 1.26 | 0.807 |
| NCI-H2405 | 0.686 | 0.81 | 0.733 | 0.703 | 1.01 | 0.934 | 0.852 | 0.918 | 1.13 | 0.883 | 0.967 | 0.881 | 0.672 | 1.03 | 1.08 | 0.981 | 1.03 | 1.09 |
| NCI-H3122 | 0.382 | 0.356 | 0.203 | 0.157 | 1.07 | 1.01 | 0.928 | 1.07 | 1.07 | 1.09 | 0.799 | 0.415 | 0.223 | 1.06 | 0.936 | 1.01 | 1.01 | 0.981 |
| PC-3 [JPC-3] | 0.828 | 0.881 | 0.827 | 0.554 | 0.932 | 0.95 | 0.951 | 0.905 | 0.984 | 0.947 | 0.949 | 0.888 | 0.698 | 1.12 | 1.11 | 1.14 | 1.09 | 1.05 |
| PC-14 | 0.54 | 0.618 | 0.599 | 0.453 | 1.01 | 1.02 | 0.708 | 1.02 | 1.07 | 0.938 | 0.943 | 0.765 |  | 1.07 | 1.14 | 0.671 | 1.04 | 1.01 |
| RERF-LC-KJ | 0.499 | 0.432 | 0.416 | 0.414 | 0.922 | 0.948 | 0.738 | 0.895 | 0.895 | 0.832 | 0.775 | 0.792 | 0.764 | 1.03 | 0.934 | 0.65 | 0.856 | 0.927 |
| SK-LU-1 | 0.412 | 0.408 | 0.346 | 0.338 | 1.13 | 1.27 | 1.19 | 1 | 1.5 | 1.23 | 1.08 | 1.13 | 0.941 | 0.981 | 0.977 | 0.993 | 0.751 | 0.955 |
| SK-MES-1 | 1.05 | 0.408 | 0.319 | 0.28 | 1.11 | 1.22 | 0.809 | 1.08 | 1.18 | 1.07 | 0.799 | 0.433 | 0.337 | 1.13 | 1.38 | 0.372 | 0.88 | 1.02 |
| SW 1573 | 0.205 | 0.175 | 0.183 | 0.153 | 0.834 | 0.788 | 0.804 | 0.95 | 0.722 | 0.734 | 0.917 | 0.782 | 0.483 | 1.19 | 1.17 | 0.776 | 0.788 | 0.955 |
